Literature values in patent US20150297607A1, “Tricyclic Lactams for Use in the Protection of Normal Cells During Chemotherapy” (G1 Therapeutics, Inc., priority 2014, published 2015).

Details: clinical trial; Grade 3/4 neutropenia and leukopenia

CC(=O)c1c(C)c2cnc(Nc3ccc(N4CCNCC4)cn3)nc2n(C2CCCC2)c1=O [PD0332991, 6-acetyl-8-cyclopentyl-5-methyl-2-(5-piperazin-1-yl-pyridin-2-ylammino)-8H-pyrido-[2,3-d]-pyrimidin-7-one]
patients requiring a dose interruption: 71%
patients requiring a dose reduction: 35%
